Source: patent US12060588B2, “Methods of editing DNA methylation” (Whitehead Institute for Biomedical Research, priority 2016, dated 2024)

System: C3H10T1/2 mouse embryonic fibroblast cells
Test: Fibroblast-to-myoblast conversion assay
Assay type: cell-based
Text: FIGS. 4A-4H depict targeted demethylation of the MyoD distal enhancer by dCas9-Tet1 to facilitate conversion of fibroblasts to myoblasts. FIG. 4A provides a schematic representation of targeting the MyoD distal enhancer (DE) region in DMR-5 by dCas9-Tet1 (dC-T) with specific gRNAs. […] Cherry positive cells were FACS sorted for RT-qPCR analysis. Bars represent mean±SD of three experimental replicates. FIG. 4C bisulfite sequencing of cells in FIG. 4B. […] Shown is the mean percentage±SD of two biological replicates. […] C3H10T1/2 cells were plated as 1×10^4 cells per well in 6-well plate, and then infected with lentiviruses expressing dC-T and gRNAs targeting DMR-5, or a catalytic dead form of Tet1 (dC-dT) with target gRNAs. 24-hour post infection, cells were treated with vehicle control (HEPES buffer) or 5-Azacytidine (1 uM) for 24-hour, and then harvested after 14 days for immunofluorescence staining. Stained in green for MyoD, magenta for MHC and blue for DAPI. Scale bar: 200 um. FIG. 4F provides quantification of MyoD positive cell ratio 14-day post infection with lentiviruses expressing dC-T alone, dC-T with gRNAs targeting DMR-5, and dC-dT with the target gRNAs. […] FIG. 4H provides quantification of myotube density in MHC positive clusters with more than 2 or 5 nuclei at 14-days after infection. […] Data are quantified from 3-5 representative images for F-H. Bars represent mean±SD.
FIGS. 12A-12J depict targeted demethylation of the MyoD DMR-5 by dCas9-Tet1 and conversion of fibroblasts to myoblasts. […] PAM for each sgRNA is highlighted by a red box. FIG. 12B provides experimental scheme of the fibroblast-to-myoblast conversion assay. Briefly, C3H10T1/2 mouse embryonic fibroblast cells were plated as 1×10^4 cells per well in 6-well plate, and then infected with lentiviruses expressing dCas9-Tet1 and target gRNAs. 24-hour post infection, cells were optionally treated with 5-Azacytidine (1 uM) for 24-hour (labeled in red), and harvested for immunofluorescence staining at different time points (day-14, -16 and -25, labeled in dark blue) with medium change every other day. Scale bar: 100 um. […] Stained in green for MHC, red for MyoD and blue for DAPI. Scale bar: 200 um. FIG. 12D depicts a fraction of mock C3H10T1/2 cells expressing MyoD at different times after 5-Aza treatment. The fraction of cells expressing MyoD increases from around 6% at day 14 to around 13% at day 16 and reached around 20% at day 25. Bars represent mean±SD. FIG. 12E provides number of nuclei in MHC+ cell clusters (grouped as 1-2 and >2 nuclei per MHC+ cluster). […] Bars represent mean±SD. Data was quantified from 3-5 representative images for each group in FIG. 12D and FIG. 12E. […] Bars represent mean±SD of three experimental replicates. FIG. 12G provides representative images for C3H10T1/2 cells 16 days after infection with lentiviruses expressing dC-T and gRNAs targeting DMR-5 (MyoD distal enhancer) in a fibroblast-to-myoblast conversion assay as described in FIG. 12B. […] Stained in magenta for MHC, green for MyoD and blue for DAPI. Scale bar: 200 um. FIG. 12H depicts a fraction of MyoD positive cells 16 days after infection with lentiviruses expressing dC-T alone or with gRNAs targeting DMR-5. FIG. 12I show a number of nuclei in MHC+ cell clusters (grouped as 2-5, 6-10, 11-20 and >20 nuclei per MHC+ cluster) 16 days after infection. […] Data are quantified from 3-5 representative images for FIGS. 12H-12J. Bars represent mean±SD.
We then investigated whether targeted demethylation of DMR-5 would synergize with 5-Aza treatment to induce myotube formation (FIG. 12B). To follow the process of myotube formation after 5-Aza treatment, a time-course experiment was performed. Multi-nucleated myotube (MHC-positive) with heterogeneous sizes began to form 14 days post treatment, and both MyoD-positive cell ratio and myotube density and size then increased up to day-25 (FIGS. 12C-12E). […]

## dCas9-Tet1: catalytically inactive Cas9 (dCas9) fused through NLS to the Tet1 catalytic domain, SEQ ID NO: 159; lentivirally expressed with gRNAs
With gRNAs targeting DMR-5, 14 days, absence of 5-Aza
  MyoD expression level (immunofluorescence): moderate expression level of MyoD
With gRNAs targeting DMR-5, 14 days, absence of 5-Aza treatment
  myotube formation: not sufficient to induce myotube formation
With gRNAs targeting MyoD DMR-5 plus 5-Aza, 14 days post-treatment, versus dCas9-Tet1 only or dC-dT
  myotube formation (MHC+ clusters, >2 nuclei per cluster): facilitated the myotube formation
